# How the values were obtained:
# NRF2 = NRF2 and HO-1 protein levels in MEFs (immunoblot); format: cell-based, mouse
# Experimental: FIG. 4. […] MEFs in serum-depleted conditions were subjected to (A-C) 1 μM, 3 μM, or 10 μM of PHAR and 10 μM of SFN as a positive control for 16 h; or (D-F) 10 μM of PHAR for the indicated times. In both experiments, 0.1% DMSO was used as a vehicle. A), representative immunoblots of NRF2, HO1, KEAP1, LAMINB, and GAPDH as loading controls. B) and C), densitometric analysis of NRF2 and HO1 protein levels of the representative immunoblots depicted in (A), expressed as a ratio of NRF2/LAMINB or HO1/GAPDH. The data is depicted as means±SEM (n=3). Statistical analysis was performed with one-way ANOVA followed by the Bonferroni test to check inter-group differences. *p<0.05; ***p<0.001 vs. 0. D), representative immunoblots of NRF2, HO1, KEAP1, LAMINB, and GAPDH as loading controls. E) and F), Densitometric analysis of NRF2 and HO1 protein levels of the representative immunoblots of (D), expressed as a ratio of NRF2/LAMINB or HO1/GAPDH. The data is depicted as means±SEM (n=3). Statistical analysis was performed with one-way ANOVA followed by the Bonferroni test to check inter-group differences. *p<0.05; ***p<0.001 vs. 0. G), Reporter MCF-7 c32 ARE-luc cells were subjected to 1 μM, 3 μM, or 9 μM of PHAR and 10 μM of SFN as a positive control. 0.1% DMSO was used as a vehicle. Luciferase activity was measured after 16 h of treatment. The data is depicted as means±SEM (n=3). Statistical analysis was performed with one-way ANOVA followed by the Bonferroni test to check inter-group differences. **p<0.01; ***p<0.001 vs. 0. H), MTT assay to evaluate cell viability/toxicity after treatments. I), Serum-deprived MEFs were subjected to 10 μM of PHAR. The mRNA levels of Hmox1, Nqo1, Aox1, Glc, and Gclm after 8 h of treatment were determined by means of pRT-PCR and normalized by means of average LaminB, Gapdh, and β-actin. The data is depicted as means±SEM (n=3). Statistical analysis was performed with the Student's T test. *p<0.05; **p<0.01 ***p<0.001 vs. 0.
# In order to empirically determine if PHAR activates NRF2, mouse embryo fibroblasts (MEFs) were treated with several doses of the compound (1 μM, 3 μM, and […]) for 16 h and with 10 μM of sulforaphane (SFN), one of main electrophilic activators of NRF2, used as a positive control.
# Moreover, a time course of NRF2 activation with PHAR (10 μM for 2, 4, and 8 h) or with SFN (10 μM, 8 h) was done as a positive control.
# [1] = system: peritoneal macrophages (Nrf2+/+); assay: Inflammatory response in LPS-stimulated peritoneal macrophages from Nrf2+/+ mice; format: cell-based, mouse; conditions: PHAR 10 μM 8 h, LPS 100 ng/ml 4 h
# Experimental: FIG. 8. PHAR reduces inflammatory response in peritoneal macrophages originating from Nrf2^+/+ mice but not in peritoneal macrophages originating from LPS-stimulated Nrf2-4KI mice. Peritoneal macrophages originating from wild-type (WT) and serum-deprived NRF2 knock-in (Nrf2-4Ki) mice were pretreated with 10 μM of PHAR for 8 h. 0.1% DMSO was used as a vehicle. After that period of time, the cells were treated with 100 ng/ml of LPS for 4 h. A), representative immunoblots originating from both cell types of NRF2, HO1, pre-IL1β, COX2, NOS2, and GAPDH as a loading control. B), densitometric analysis of NRF2 and HO1 protein levels of the representative immunoblots of (A), expressed as a ratio of protein/GAPDH levels. The data is depicted as means±SEM (n=3). Statistical analysis was performed with two-way ANOVA followed by the Bonferroni test to compare inter-group differences. *p<0.05; **p<0.01; ***p<0.001 vs. LPS. C), Densitometric analysis of pre-IL1b, COX2, and NOS2 protein levels of the representative immunoblots of (A), expressed as a ratio of protein/GAPDH levels. The data is depicted as means±SEM (n=3). […] D), the mRNA levels of Hmox1, Il1 β, Cox2, Nos2, Il6, and Tnfα were determined by means of qRT-PCR and normalized by means of average Gapdh, Thp, and β-actin. […]
smiles,measurement,setting,value
O=C1[C@@H]2[C@H](Cc3c[nH]c4ccccc34)N[C@]3(C(=O)Nc4ccc(Cl)cc43)[C@@H]2C(=O)N1c1ccc2c(c1)OCCO2 [PHAR],HO-1 levels,"NRF2; 16 h, PHAR 1, 3, 9 μM","increase, mainly with the dose of 9 μM"
same,NRF2 accumulation,"NRF2; 16 h, PHAR 1, 3, 9 μM, SFN 10 μM","induced NRF2 accumulation, although to a slightly lesser extent than the accumulation induced by SFN"
same,"NRF2 accumulation, time course","NRF2; PHAR 10 μM for 2, 4, 8 h, SFN 10 μM, 8 h",induced NRF2 accumulation 2 h after treatment
same,"HO-1 levels, time course","NRF2; PHAR 10 μM, 8 h",increase in HO-1 levels after 8 h
same,NRF2 and HO-1 protein levels,[1],significant increase in NRF2 and HO-1 protein levels
same,"production of inflammatory markers, protein (pre-IL1β, COX2, NOS2) and mRNA (Il1β, Cox2, Nos2, Il6, Tnfα)",[1],significantly lower

# Reference: patent US12590100B2, “Tetrahydro-spiroindoline-pyrrolopyrrole-triones inhibitors of the NRF2-β-TrCP interaction for use in the treatment of fatty liver disease” (Universidad Autonoma De Madrid, priority 2021, dated 2026)
